Source: patent EP1100483B1, “GLUCOCORTICOID-SELECTIVE ANTI-INFLAMMATORY AGENTS” (Abbott Laboratories, priority 1998, dated 2000)

biological target: T1, human androgen receptor (AR) (Homo sapiens, UniProt P10275); assay: human androgen receptor (AR) cytosol binding assay, [3H]-dihydrotestosterone competition; conditions: 1-2 nM [3H]-DHT, 4 °C for 18 hours; Cheng-Prusoff
T1 construct: The full length human androgen receptor (AR) was derived from cDNA expressed in a baculovirus expression system; purchased Ligand Pharmaceuticals (San Diego, CA); host or cells: SF21 insect cells (baculovirus)
T1 sequence (P10275 1-920): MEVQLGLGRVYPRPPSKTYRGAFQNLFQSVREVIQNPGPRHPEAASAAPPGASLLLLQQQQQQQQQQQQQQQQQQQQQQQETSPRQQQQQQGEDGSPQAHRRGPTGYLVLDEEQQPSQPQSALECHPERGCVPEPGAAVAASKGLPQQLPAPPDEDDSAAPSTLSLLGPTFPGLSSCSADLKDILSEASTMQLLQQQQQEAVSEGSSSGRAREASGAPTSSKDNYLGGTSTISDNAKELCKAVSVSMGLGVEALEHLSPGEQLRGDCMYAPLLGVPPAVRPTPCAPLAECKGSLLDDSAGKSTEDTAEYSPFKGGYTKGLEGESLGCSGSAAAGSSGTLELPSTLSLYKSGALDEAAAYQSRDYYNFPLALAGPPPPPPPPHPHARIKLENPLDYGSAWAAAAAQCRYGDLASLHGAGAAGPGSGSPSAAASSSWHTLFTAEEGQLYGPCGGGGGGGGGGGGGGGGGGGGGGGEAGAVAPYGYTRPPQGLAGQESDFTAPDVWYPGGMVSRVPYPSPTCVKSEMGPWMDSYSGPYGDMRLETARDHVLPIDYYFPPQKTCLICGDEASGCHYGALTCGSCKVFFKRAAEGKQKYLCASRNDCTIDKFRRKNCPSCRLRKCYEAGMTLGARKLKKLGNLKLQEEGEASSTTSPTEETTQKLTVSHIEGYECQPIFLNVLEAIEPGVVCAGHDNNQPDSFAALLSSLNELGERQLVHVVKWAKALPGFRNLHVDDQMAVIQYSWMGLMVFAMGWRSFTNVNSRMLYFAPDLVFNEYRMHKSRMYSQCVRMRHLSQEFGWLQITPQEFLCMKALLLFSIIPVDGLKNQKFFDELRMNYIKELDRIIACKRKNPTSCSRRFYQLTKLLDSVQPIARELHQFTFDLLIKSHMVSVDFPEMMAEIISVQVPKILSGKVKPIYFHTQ
From the text: For human androgen receptor (AR) cytosol binding assays, [^3H]-dihydrotestosterone (DHT) (120-140 Ci/mmol) was purchased from Amersham Life Science (Arlington Heights, IL), DHT was purchased from Sigma Chemical Co. (St. Louis, MO), CHAPS and DTT were purchased from Boehringer Mannheim GmbH (W. Germany), and all other reagents were purchased from Sigma. The full length human androgen receptor (AR) was derived from cDNA expressed in a baculovirus expression system from Ligand Pharmaceuticals (San Diego, CA). The methods concerning growth, purification, and assays of recombinant viruses followed the protocol outlined by Summers, M.D., Smith, G.E., A Manual of Methods for Baculovirus Vectors and Insect Cell Culture Procedures, Tex. Agric. Exp. Stn. [Bull], 1987, No. 155, hereby incorporated by reference. The recombinant plasmids were cotransfected into SF21 cells with wild type AcNPV DNA, and the recombinant viruses were plaque purified.
A receptor extract was prepared from the baculovirus system , and aliquots were stored at -80 °C until used. Typical protein concentrations for these extracts were between 10 and 20 mg/ml. Stock solutions of DHT or other competing compounds were prepared as 5 mM stock solutions in either 100% ethanol or DMSO and serial dilutions were carried out in 1:1 DMSO-ethanol. The assay buffer consisted of the following: 25 mM sodium phosphate, 10 mM potassium fluoride, 10 mM sodium molybdate, 10% glycerol, 1.5 mM EDTA, 2 mM DTT, 2 mM CHAPS and 1 mM PMSF, pH=7.4 at room temperature.
Receptor assays were performed with a final volume of 250 µL containing from 50-75 µg of extract protein, plus 1-2 nM [^3H]-DHT and varying concentrations of competing ligand (0-10-5 M). Assays were set up using a 96-well minitube system and incubations were carried out at 4 °C for 18 hours. Equilibrium under these conditions of buffer and temperature was achieved by 6-8 hours. Nonspecific binding was defined as that binding remaining in the presence of 1000 nM unlabeled DHT. At the end of the incubation period, 200 µL of 6.25% hydroxyapatite was added in wash buffer (binding buffer in the absence of DTT and PMSF). Specific ligand binding to receptor was determined by a hydroxyapatite-binding assay according to the protocol outlined by Wecksler, W.R., Norman, A.W., An Hydroxylapatite Batch Assay for the Quantitation of 1α, 25-Dihydroxyvitamin D3-Receptor Complexes, Anal. Biochem. 1979, 92, 314-323, hereby incorporated by reference. Hydroxyapatite absorbs the receptor-ligand complex, allowing for the separation of bound from free radiolabeled ligand. The mixture was vortexed, incubated for 10 minutes at 4 °C, centrifuged, and the supernatant was removed. The hydroxyapatite pellet was washed twice more with the wash buffer. The amount of receptor-ligand complex was determined by liquid scintillation counting of the hydroxyapatite pellet after the addition of […] EcoScint A scintillation cocktail from National Diagnostics (Atlanta, GA.).
After correcting for nonspecific binding, IC50 values were determined. […] The IC50 values were determined graphically from a log-logit plot of the data. […] Standards are included in each assay and resulting Ki values are determined by use of a modified Cheng-Prusoff equation and used to calculate Ki values for "unknown analogs" outlined by DeBlasi, A., O'Reilly, K., Motulsky, H.J., Calculating Receptor Number from Binding Experiments Using Same Compound As Radioligand and Competitor, TIPS 1989, 10, 227-229, hereby incorporated by reference.

| SMILES | Ki [nM] |
| --- | --- |
| CN(C)c1ccc(C(Sc2ccccc2)c2cc([N+](=O)[O-])ccc2Cl)cc1 (stereo not shown) [Example 54, phenyl-[(4'-dimethylaminophenyl)-(2-chloro-5-nitrophenyl)methyl]thioether] | 3730 |
| CNc1ccc(C(c2ccc(N(C)C)cc2)c2cc([N+](=O)[O-])ccc2Cl)cc1 (stereo not shown) [Example 39, 4'-dimethylamino-4"-methylamino-2-chloro-5-nitrotriphenylmethane] | 3730 |
| CN(C)c1ccc(C(c2ccc(N(C)C)cc2)c2cc([N+](=O)[O-])ccc2Cl)cc1 [Example 1, 4',4" bis(dimethylamino)-2-chloro-5-nitrotriphenylmethane] | 3730 |
| O=[N+]([O-])c1ccc(Cl)c(C(c2ccc(NCc3ccccc3)cc2)c2ccc(NCc3ccccc3)cc2)c1 [Example 36, 4',4" bis(N-benzylamino)-2-chloro-5-nitrotriphenylmethane] | 3730 |
| CN(CCO)c1ccc(C(c2ccc(N(C)CCO)cc2)c2cc([N+](=O)[O-])ccc2Cl)cc1 [Example 32, 4',4" bis(N-(2-hydroxyethyl) N-methylamino)-2-chloro-5-nitrotriphenylmethane] | 3520 |
| CC(=O)OCCN(C)c1ccc(C(c2ccc(N(C)C)cc2)c2cc([N+](=O)[O-])ccc2Cl)cc1 (stereo not shown) [Example 51, 4'-dimethylamino-4"-(N-methyl-N-(2-acetoxyethyl)amino)-2-chloro-5-nitrotriphenylmethane] | > 10000 |
| CNc1ccc(C(c2ccc(NC)cc2)c2cc(Cl)ccc2Cl)cc1 [Example 27, 4',4" bis(methylamino)-2,5-dichlorotriphenylmethane] | 3240 |
| CN(C)c1ccc(C(c2ccc(N(C)C)cc2)c2cc(Cl)ccc2Cl)cc1 [Example 24, 4',4" bis(dimethylamino)-2,5-dichlorotriphenylmethane] | 3730 |
| CNc1ccc(C(c2ccc(N(C)CCOC(C)=O)cc2)c2cc([N+](=O)[O-])ccc2Cl)cc1 (stereo not shown) [Example 49, 4'-methylamino-4"-(N-(2-acetoxyethyl)-N-methylamino)-2-chloro-5-nitrotriphenylmethane] | 1040 |
| CNc1ccc(C(c2ccc(NC)cc2)c2cc([N+](=O)[O-])ccc2Cl)cc1 [Example 23, 4',4" bis(methylamino)-2-chloro-5-nitrotriphenylmethane] | 4260 |
| CN(C)c1ccc(C(Oc2ccccc2)c2cc([N+](=O)[O-])ccc2Cl)cc1 (stereo not shown) [Example 52, phenyl-[(4'-dimethylaminophenyl)-(2-chloro-5-nitrophenyl)methyl] ether] | > 10000 |
| CN(C)c1ccc(C(c2ccc(N(C)CCO)cc2)c2cc([N+](=O)[O-])ccc2Cl)cc1 (stereo not shown) [Example 42, 4'-dimethylamino-4"-(N-methyl-N-(2-hydroxyethyl)amino)-2-chloro-5-nitrotriphenylmethane] | 2800 |
| CC(=O)OCCN(C)c1ccc(C(c2ccc(N(C)CCOC(C)=O)cc2)c2cc([N+](=O)[O-])ccc2Cl)cc1 [Example 31, 4',4" bis(N-(2-acetoxyethyl) N-methylamino)-2-chloro-5-nitrotriphenylmethane] | 3520 |
